Some test systems named below: DU-145; HCT-116; HCT-15; HL-60; KM12; M14; MCF7; MDA-MB-435; MDA-N; Malme-3M; NCI-H23; OVCAR-3; OVCAR-5; SF-268; SF-295; SK-MEL-2; SNB-75; SR; RPMI-8226; NCI-H522.
Assay in all cases: NCI anticancer screen, dose series, 48 h

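Test compounds were applied to cells in 96-well plates for 48 hours at 5 doses. GI50: concentration for 50% inhibition of growth.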 Calls of active or inactive are those of the source. Rule as the data show it: active = GI50 up to about 1.1 µM and inactive = higher.

The values that follow come from ChEMBL document CHEMBL1201862, “PubChem BioAssay data set” (2004).

On to `COc1c2cc(C(C)(C)C)cc1CSCc1cc(C(C)(C)C)cc(c1OC)CCCCC2`, for which the GI50 is 31.8 µM (inactive) with DU-145; 27.4 µM (inactive) in the assay on HCT-116; over 50 µM with HCT-15; > 50 µM (inactive) with HL-60; > 50 µM (inactive) with KM12; 46.7 µM (inactive) in the assay on M14. In addition, the GI50 in the assay with MCF7 is > 50 µM (inactive); with MDA-MB-435 it was > 50 µM (inactive); with MDA-N, > 50 µM (inactive); in the assay on Malme-3M, 29 µM (inactive); with NCI-H23 it was 36.7 µM (inactive); in the assay with OVCAR-3, 15.1 µM (inactive). The GI50 is > 50 µM (inactive) in the assay with OVCAR-5; 46.2 µM (inactive) with SF-268; 17 µM (inactive) in the assay with SF-295; 25.1 µM (inactive) in the assay on SK-MEL-2; > 50 µM (inactive) with SNB-75; > 50 µM (inactive) with SR.

With `Cc1nnc2n(c1=O)CCCN2C`, the GI50 with DU-145 is > 100 µM (inactive); in the assay with HCT-116, > 100 µM (inactive); in the assay on HCT-15, over 100 µM; with HL-60 it was > 100 µM (inactive); with KM12, > 100 µM (inactive); in the assay on M14 it was > 100 µM (inactive). The GI50 in the assay with MCF7, in the assay on MDA-MB-435, in the assay with MDA-N, with Malme-3M, in the assay on NCI-H23 and in the assay on OVCAR-3 was > 100 µM (inactive) throughout. Besides, the GI50 in the assay on OVCAR-5, with RPMI-8226, with SF-268, in the assay on SF-295, with SK-MEL-2 and in the assay with SNB-75 was > 100 µM (inactive) each time. The GI50 in the assay with SR was > 100 µM (inactive).

As for `Cc1c(C)c(C)c(-n2[nH]c(=O)n(C)c2=O)c(C)c1C`, the GI50 with DU-145 was > 100 µM (inactive); in the assay on HCT-116 it was > 100 µM (inactive); in the assay on HCT-15, over 100 µM; with HL-60, > 100 µM (inactive); in the assay with KM12, > 100 µM (inactive); with M14 it was > 100 µM (inactive). In addition, the GI50 in the assay on MCF7, in the assay on MDA-MB-435, with MDA-N, with NCI-H23, in the assay with OVCAR-3 and in the assay with OVCAR-5 was > 100 µM (inactive) throughout. Also, the GI50 in the assay with RPMI-8226, in the assay on SF-268, in the assay on SF-295, in the assay on SK-MEL-2, with SNB-75 and in the assay on SR was > 100 µM (inactive) in each case.

As for `CC(=O)OC1CC2C(=O)C(=O)C1(C)C2(C)C` (configuration not stated), the GI50 in the assay with DU-145 is > 100 µM (inactive); with HCT-116 it was > 100 µM (inactive); in the assay on HCT-15, over 100 µM; in the assay on HL-60, > 10 µM (inactive); in the assay with M14, > 100 µM (inactive); with MCF7 it was > 100 µM (inactive). Also, the GI50 with MDA-MB-435, in the assay with MDA-N, in the assay with Malme-3M, in the assay with NCI-H23, with OVCAR-3 and in the assay on OVCAR-5 was > 100 µM (inactive) each time. Besides, the GI50 in the assay on RPMI-8226, in the assay with SF-268, in the assay with SF-295, with SNB-75 and in the assay with SR was > 100 µM (inactive) throughout.

Turning to `CC(C)c1cccc(C(C)C)c1NC(=O)/C(CC(=O)CC(c1ccccc1)c1c(O)c2ccccc2oc1=O)=N/O` (configuration not stated), the GI50 with DU-145 is > 100 µM (inactive); in the assay on HCT-116, > 100 µM (inactive); with HCT-15 it was over 100 µM; in the assay with HL-60, > 100 µM (inactive); with KM12, > 100 µM (inactive); with M14, > 100 µM (inactive). Further, the GI50 in the assay with MCF7 was > 100 µM (inactive); in the assay on MDA-MB-435, > 100 µM (inactive); in the assay on MDA-N it was > 100 µM (inactive); in the assay with Malme-3M it was 95.9 µM (inactive); in the assay on NCI-H23, > 100 µM (inactive); in the assay with NCI-H522, > 100 µM (inactive). The GI50 in the assay with OVCAR-3, with OVCAR-5, in the assay on RPMI-8226, in the assay on SF-268, in the assay with SF-295 and in the assay on SK-MEL-2 was > 100 µM (inactive) in each case. Besides, the GI50 in the assay on SNB-75 is > 100 µM (inactive).

Consider `COc1cc(C(=O)OCCn2[nH]c(-c3ccc(Cl)cc3)nc2=S)cc(OC)c1OC`, for which the GI50 was 23.6 µM (inactive) in the assay on DU-145; > 100 µM (inactive) with HCT-116; 36 µM in the assay with HCT-15; 38.9 µM (inactive) with HL-60; > 100 µM (inactive) in the assay on KM12; 38.3 µM (inactive) in the assay on M14. For the same compound, the GI50 in the assay with MCF7 is > 100 µM (inactive); in the assay on MDA-MB-435 it was 51.1 µM (inactive); with MDA-N, 49 µM (inactive); in the assay with Malme-3M, 45.5 µM (inactive); in the assay with NCI-H23, 49.1 µM (inactive); with NCI-H522, 27.7 µM (inactive). Moreover, the GI50 in the assay on OVCAR-3 was 51.3 µM (inactive); with OVCAR-5, > 100 µM (inactive); in the assay with SF-268 it was 34.3 µM (inactive); in the assay with SF-295 it was 44.7 µM (inactive); in the assay with SK-MEL-2 it was > 100 µM (inactive); in the assay with SR, 37.8 µM (inactive).

As for `c1cc2c3ccsc3c3sccc3c2s1`, the GI50 with DU-145 is > 100 µM (inactive); in the assay with HCT-116 it was > 100 µM (inactive); with HCT-15, over 100 µM; with HL-60, 46.9 µM (inactive); in the assay with KM12, > 100 µM (inactive); in the assay on M14, > 100 µM (inactive). In addition, the GI50 with MCF7 was 26.9 µM (inactive); in the assay with MDA-MB-435 it was > 100 µM (inactive); in the assay with MDA-N it was > 100 µM (inactive); in the assay on NCI-H23, 47.5 µM (inactive); with OVCAR-3 it was > 100 µM (inactive); with OVCAR-5, > 100 µM (inactive). The GI50 with RPMI-8226 was > 100 µM (inactive); in the assay on SF-268 it was > 100 µM (inactive); in the assay on SF-295, > 100 µM (inactive); in the assay with SK-MEL-2 it was 10.6 µM (inactive); in the assay with SNB-75 it was 23.1 µM (inactive); in the assay with SR, 24.7 µM (inactive).

`C1CSCCSCCS1`: the GI50 in the assay on DU-145 was > 100 µM (inactive); in the assay on HCT-116 it was > 100 µM (inactive); in the assay with HCT-15 it was over 100 µM; in the assay on HL-60 it was > 100 µM (inactive); with KM12 it was > 100 µM (inactive); in the assay on M14 it was > 100 µM (inactive). In addition, the GI50 in the assay with MCF7, in the assay on MDA-MB-435, in the assay with MDA-N, in the assay with NCI-H23, with NCI-H522 and in the assay with OVCAR-3 was > 100 µM (inactive) in each case. Moreover, the GI50 in the assay with OVCAR-5, with RPMI-8226, with SF-268, in the assay on SF-295, with SNB-75 and in the assay with SR was > 100 µM (inactive) throughout.

Turning to `COc1ccc(C2SC(=N)Nc3c2c(C)nn3C(=O)c2ccccc2O)cc1OC` (configuration not stated), the GI50 in the assay on DU-145 is 4.3 µM (inactive); in the assay with HCT-116, 2.37 µM (inactive); in the assay with HCT-15, 4.78 µM; with HL-60, 2.16 µM (inactive); in the assay with KM12 it was 6.55 µM (inactive); in the assay on M14 it was 7.11 µM (inactive). For the same compound, the GI50 with MCF7 is 3.3 µM (inactive); in the assay on MDA-MB-435 it was 2.81 µM (inactive); in the assay with MDA-N, 6.08 µM (inactive); with Malme-3M it was 6.3 µM (inactive); in the assay on NCI-H23, 3.52 µM (inactive); in the assay on OVCAR-3, > 10 µM (inactive). The GI50 was > 10 µM (inactive) with OVCAR-5; 6.28 µM (inactive) in the assay on RPMI-8226; 5.32 µM (inactive) in the assay with SF-268; 5.69 µM (inactive) with SF-295; 4.26 µM (inactive) in the assay on SK-MEL-2; 3.09 µM (inactive) in the assay with SNB-75. Besides, the GI50 in the assay with SR was 4.75 µM (inactive).

In the case of `O=C(O)C1CCCN1Cc1cc2ccccc2c2ccccc12` (configuration not stated), the GI50 with DU-145 was > 100 µM (inactive); with HCT-116, > 100 µM (inactive); in the assay with HCT-15, over 100 µM; in the assay with HL-60 it was > 100 µM (inactive); in the assay with KM12, > 100 µM (inactive); in the assay with M14, > 100 µM (inactive). Besides, the GI50 in the assay on MCF7, with MDA-MB-435, in the assay on MDA-N, in the assay on Malme-3M, in the assay on NCI-H23 and with NCI-H522 was > 100 µM (inactive) in each case. Further, the GI50 in the assay on OVCAR-3, in the assay on OVCAR-5, in the assay with RPMI-8226, with SF-268, in the assay with SF-295 and in the assay with SK-MEL-2 was > 100 µM (inactive) in each case. The GI50 with SNB-75 is > 100 µM (inactive).

With `O=C1C(NS(=O)(=O)c2ccccc2)=C(N(Cc2ccccc2)Cc2ccccc2)C(=O)c2ccccc21`, the GI50 in the assay with DU-145 is 48.1 µM (inactive); with HCT-116, 36.7 µM (inactive); in the assay with HCT-15 it was 37.7 µM; in the assay on HL-60, 20.7 µM (inactive); with KM12 it was > 100 µM (inactive); in the assay on M14, 43.7 µM (inactive). Besides, the GI50 in the assay with MCF7 was 49.7 µM (inactive); in the assay on MDA-MB-435 it was 47.3 µM (inactive); in the assay on MDA-N, 64.6 µM (inactive); in the assay on Malme-3M it was 0.273 µM (active); in the assay with NCI-H23, 15.8 µM (inactive); in the assay with OVCAR-3, 30.4 µM (inactive). Moreover, the GI50 in the assay with OVCAR-5 is > 100 µM (inactive); in the assay on RPMI-8226, 18.8 µM (inactive); in the assay on SF-268, 88.1 µM (inactive); in the assay on SF-295 it was 31.9 µM (inactive); with SK-MEL-2, 20.8 µM (inactive); in the assay with SNB-75 it was 70.8 µM (inactive). In the assay with SR, the GI50 was 22.7 µM (inactive).
